Test results as given in US4140769A, “3-Substituted salicylamides” (Miles Laboratories, Inc., priority 1978, dated 1979).
Structures can show the parent of a compound that is named as a salt. Where two headings read alike, the source gives them in different places.

How the values were obtained:
[1] = tested on: abdominal constriction response; experiment: duration of analgesic activity (abdominal constriction response, time for 50 percent decay of the analgesic effect of the ED90 dosage); format: in vivo, mice; settings: for increase in duration of activity versus unsubstituted control compound (factor): in comparison to the unsubstituted control compound; for Duration of Activity 1/2 T: time to 50 percent decay of analgesic effect, pharmacologically equipotent doses, based on ED90 dosages
Description: The analgesic activity of the compounds of the present invention was tested in mice by means of the "abdominal constriction" response. The test is based on the observation that following interperitoneal injection of a noxious agent, such as acetylcholine chloride, mice show a response which consists of a wave of constriction and elongation passing caudally along the abdominal wall, sometimes accompanied by twisting of the trunk and followed by extension of the hind limbs. […] Non-fasted female mice, weighing between 20 and 25 g, were used in the studies. […] The animals were then placed in a circular glass enclosure and the number of responses counted during a given time period.

[2] = tested on: abdominal constriction response; experiment: abdominal constriction response (analgesic activity, acetylcholine chloride-induced, s.c. dosing); format: in vivo, mice; settings: for ED50: Mus musculus, sc; for ED50 / potency, in words: compared with control compound, other examples; for analgesic activity (no activity): at 20 mg/kg, hydrochloride; for analgesic activity, in words: Table II conclusions and summary
Description: The analgesic activity of the compounds of the present invention was tested in mice by means of the "abdominal constriction" response. The test is based on the observation that following interperitoneal injection of a noxious agent, such as acetylcholine chloride, mice show a response which consists of a wave of constriction and elongation passing caudally along the abdominal wall, sometimes accompanied by twisting of the trunk and followed by extension of the hind limbs. […] Non-fasted female mice, weighing between 20 and 25 g, were used in the studies. […] The animals were then placed in a circular glass enclosure and the number of responses counted during a given time period. Compounds completely inhibiting the response to acetycholine in at least five out of ten animals were subsequently tested at reduced dosage levels, using groups of ten animals per dose. The dose required to produce a specified response, that is, analgesic effect, is termed the individual effective dose; the response is a quantal rather than a graded response, since it is either present or absent. The cumulative frequency distribution of individual effective doses obtained, plotted as a function of logarithm of dose, is known as a dose-percent or dose-response curve. The ED50 and ED90 is then calculated from the dose-response curve obtained in the above experiments. […] The expression ED90 indicates the amount of compound required to produce an analgesic effect in 90 percent of animals tested.

[3] = subcutaneous, 10 min before i.p. acetylcholine chloride (3.2 mg/kg), mice, read-out: ED50

| Structure (SMILES) | Duration of Activity 1/2 T [1] | ED50 [2, 3] | ED50 / potency, in words [2] | further results |
| --- | --- | --- | --- | --- |
| CCCCc1cccc(C(=O)NCCN(CC)CC)c1O [Example 4, N-(2-diethylaminoethyl)-3-n-butylsalicylamide oxalate] | 125 min | 31 mg/kg | less active analgesics than the other examples and the control sample | increase in duration of activity versus unsubstituted control compound (factor) [1]: greater than 5 fold |
| CCN(CC)CCNC(=O)c1cccc(C(C)(C)C)c1O [Example 6, N-(2-diethylaminoethyl)-3-t-butylsalicylamide hydrochloride] | 120 min | 14.3 mg/kg | substantially at the same potency as that of the control compound |  |
| CCN(CC)CCNC(=O)c1cccc(C(C)C)c1O [Example 1, N-(2-diethylaminoethyl)-3-isopropylsalicylamide hydrochloride] | 80 min | 12.7 mg/kg | substantially at the same potency as that of the control compound |  |
| CCN(CC)CCNC(=O)c1cccc(C(C)(C)CC)c1O [Example 7, N-(2-diethylaminoethyl)-3-t-amylsalicylamide hydrochloride] |  |  |  | analgesic activity (no activity) [2]: no activity; analgesic activity (no activity) ([2]; listed as amyl): no analgesic activity |
| CCN(CC)CCNC(=O)c1cccc(Cl)c1O [Example 10, N-(2-diethylaminoethyl)-3-chlorosalicylamide hydrochloride] |  |  |  | analgesic activity (no activity) [2]: no activity; analgesic activity (no activity) ([2]; listed as 3-chloro): no analgesic activity |
| CCN(CC)CCNC(=O)c1cccc(CC(C)C)c1O [Example 5, N-(2-diethylaminoethyl)-3-isobutylsalicylamide hydrochloride] | 205 min | 44.5 mg/kg |  | increase in duration of activity versus unsubstituted control compound (factor) [1]: greater than 5 fold |
| C=C(C)Cc1cccc(C(=O)NCCN(CC)CC)c1O [Example 9, N-(2-diethylaminoethyl)-3-methallylsalicylamide oxalate] | 60 min | 23.8 mg/kg | substantially at the same potency as that of the control compound |  |
| CCCCCCCCc1cccc(C(=O)NCCN(CC)CC)c1O [Example 3, N-(2-diethylaminoethyl)-3-n-octylsalicylamide hydrochloride] |  |  |  | analgesic activity (no activity) [2]: no activity; analgesic activity (no activity) ([2]; listed as n-octyl): no analgesic activity |
| CCN(CC)CCNC(=O)c1cccc(C)c1O [Example 2, N-(2-diethylaminoethyl)-3-methylsalicylamide hydrochloride] | < 40 min |  | fairly low ED50 | duration of analgesic activity, in words ([1]; compared with control or prior art compounds): no meaningful increase in the duration of analgesic activity; ED50 [2]: 14.2 mg/kg; analgesic activity, in words ([2]; mice): exhibited analgesic activity |
| CCN(CC)CCNC(=O)c1ccccc1O.Cl [Control, N-(2-diethylaminoethyl)salicylamide hydrochloride, reference compound] |  | 16.6 mg/kg |  | analgesic activity, in words ([2]; mice): exhibited analgesic activity |
| C=CCc1cccc(C(=O)NCCN(CC)CC)c1O [Example 8, N-(2-diethylaminoethyl)-3-allylsalicylamide oxalate] | 80 min | 17.2 mg/kg |  |  |
